Laboratory results published in patent US6337318B1, “Sustained GnRH peptide-release formulation” (Peptech, Ltd., priority 1996, dated 2002).

How the values were obtained:
[1] = tested on: prostate cancer in rats; details: controlled dose over 30 days vs equivalent or double daily doses of free peptide; cited from earlier work
[2] = tested on: estradiol levels; details: female patients; provided peptide delivered so as to maintain a constant minimum blood level; cited from earlier work
[3] = tested on: plasma testosterone; assay: suppression of plasma testosterone levels in implanted dogs; format: in vivo, dog; details: 5% deslorelin; for duration of suppression of testosterone levels: rods of 93% stearin, 2% lecithin, 0.5, 1 or 2 x 120 mg rod containing 6 mg deslorelin
Experimental: (§1) Stearin (supplied as free flowing beads of 1 mm or less in diameter made by Vandenberg Foods) and lecithin (supplied as a deep brown viscous syrup from R P Schearer) were hand mixed using a spatula in a small beaker. The deslorelin was then added and thoroughly mixed into the excipients. The mixed material was transferred to the barrel of a ram extruder that has a 1 mm nozzle attached and is equilibrated to 55° C. The ram extrusion pressure is 40 psi. The ram was attached and pressure applied until the product began to extrude. At this point the pressure was backed off and the product allowed to reach 55° C. The product was then extruded-3 g over a 30 second period. The resulting extrudate was allowed to cool and then broken up and re-extruded through a 1 mm nozzle. This step was included to ensure uniformity of content throughout the matrix. The 1 mm nozzle was then replaced with a 2.3 mm diameter nozzle. The same product temperature equilibration procedure was conducted prior to extrusion. The product was then extruded and after cooling the long rods produced could be sectioned into lengths of the required weight.
(§2) The rods produced were implanted into male dogs using standard techniques.
Stearin beads (ADMUL PO 58 from Quest International Australasia Limited) and lecithin (Topcithin 300, Bronson & Jacobs, Australia) were hand mixed using a spatula in a small beaker. The deslorelin was then added and thoroughly mixed into the excipients. The material was transferred to the barrel of a ram extruder that has a 1 mm nozzle attached and is equilibrated to 55.8° C. The ram extrusion pressure is 40 psi. The ram was then attached and pressure applied until the product began to extrude. At this point the pressure was backed off and the product allowed to reach 55.8° C. The product was then extruded-3 g over a 30 second period. The resulting extrudate was allowed to cool and then broken up before re-extruding the mixed granulation through the 1 mm nozzle at 58.3° C. and into an injectable mould that generates a finished rod product that is 2.3 mm in diameter and approximately 25 mm long. […]

[4] = tested on: male dogs; assay: testicular size in male dogs implanted with rods; format: in vivo, dog; details: implanted rods of 94% stearin, 5% deslorelin, 1% lecithin
Experimental: as §1, §2

[5] = in vitro release of deslorelin from the rods; format: physicochemical; details: rods of 94% stearin, 5% deslorelin (on an active basis), 1% lecithin
Experimental: Typically, the formulation of the first aspect will release the peptide agonist or analogue, in vitro, into phosphate buffered saline (PBS: pH 7.3, prepared by dissolving 8.00 g of sodium chloride, 1.00 g di-sodium hydrogen phosphate anhydrous, 0.40 g sodium dihydrogen phosphate dihydrate (0.31 g if anydrous), and 0.05 g sodium azide in 1 litre of deionised water), at 37° C. at a rate of about 2-350 μg/day for at least 200 days but preferably for at least 300 days.
as §1, with “The same product temperature equilibration procedure was conducted prior to extrusion. The product was then extruded and after cooling the long rods produced could be sectioned into lengths of the required weight.” left out

[6] = tested on: advanced prostatic cancer; details: monthly subcutaneous injections, advanced prostatic cancer patients; cited from earlier work

5-oxo-L-prolyl-L-histidyl-L-tryptophyl-L-seryl-L-tyrosyl-D-tryptophyl-L-leucyl-L-arginyl-L-prolylglycinamide. [triptorelin]
suppression of prostate tumour weight, microencapsulated form versus daily subcutaneous free peptide [1]: more effective | suppression of serum testosterone levels, microencapsulated form versus daily subcutaneous free peptide [1]: more effective

CCNC(=O)[C@@H]1CCCN1C(=O)[C@H](CCCN=C(N)N)NC(=O)[C@H](CC(C)C)NC(=O)[C@@H](Cc1c[nH]c2ccccc12)NC(=O)[C@H](Cc1ccc(O)cc1)NC(=O)[C@H](CO)NC(=O)[C@H](Cc1c[nH]c2ccccc12)NC(=O)[C@H](Cc1cnc[nH]1)NC(=O)[C@@H]1CCC(=O)N1 [deslorelin, [6-D-tryptophan-9-(N-ethyl-L prolinamide)-10-deglycinamide]]
suppression of estradiol levels [2]: effective | duration of suppression of testosterone levels ([3]; bitches): at least 5 months | duration of suppression of testosterone levels ([3]; dogs (male)): ≥ 12 months | duration of suppression of plasma testosterone levels ([3]; male dogs, implanted rods of 94% stearin, 1% lecithin): at least 4 months | duration of continued decline in testicular size [4]: at least 5 months | duration of release of deslorelin from the rods in vitro [5]: up to 250 days

CC(C)C[C@H](NC(=O)[C@@H](COC(C)(C)C)NC(=O)[C@H](Cc1ccc(O)cc1)NC(=O)[C@H](CO)NC(=O)[C@H](Cc1c[nH]c2ccccc12)NC(=O)[C@H](Cc1cnc[nH]1)NC(=O)[C@@H]1CCC(=O)N1)C(=O)N[C@@H](CCCNC(=N)N)C(=O)N1CCC[C@H]1C(=O)NNC(N)=O [goserelin, 3-[5 oxo-L-prolyl-L-tryptophyl-L-seryl-L-tyrosyl-(3-O-tert-butyl)-D-seryl-L-leucyl-L-arginyl-L-prolyl] cabazamide acetate.]
efficacy compared with orchiectomy [6]: as effective as orchiectomy | tolerability [6]: well tolerated
